Consider one molecule from BindingDB's records for doi:10.1021/acs.jmedchem.5b00497 (Shandong University, 2016).

The assay is described as follows: Inhibition of human recombinant CCR5 encoding an HIV-1-longterminal-repeat-regulated beta-galactosidase reporter gene expressed in human HeLaP4 cells assessed as reduction of interaction with HIV-1 gp160 expressed in CHO cells by cell-cell fusion assay.

As for `Cc1nc2ccccc2n1C1CCN(CCC(c2ccccc2)c2ccccc2)CC1`, the IC50 came to 650 nM.
